Patent publication US20230210999A1, “TARGETED PROTEASE DEGRADATION (TED) PLATFORM” (EUBULUS BIOTHERAPEUTICS INC., priority 2020, published 2023)
Like-named read-outs stand apart in the source and are kept apart here.

Legend:
Type in all cases: cell-based, human
Daudi cells = experiment: Cell proliferation experiment, Daudi; conditions: Homo sapiens, Daudi, read-out: Inhibitory activity IC50 on Daudi
Description: (§1) Reagents: RPMI-1640 medium, McCoy's 5A medium, IMDM medium, MEM medium, L-15 medium, fetal bovine serum. Penicillin-Streptomycin double antibody, trypsin, etc., 2-mercaptoethanol, NEAA, pyruvate, etc.
(§2) The cells were cultured in conventional ways, and the cells should be passed at least 2 generations before plating. Cells at the logarithmic growth phase were collected, prepared into single cell suspensions and counted. The concentration of cells was adjusted to the desired concentration, and cells were inoculated into a 96-well cell culture plate at 100 μl per well. 100 μL of complete medium of the test compound were added to each well, set up 2 duplicate wells for each concentration, and diluted with a 5-fold gradient, and continued to culture for 72 h. All cells were subjected to IC50 test for corresponding samples. The experimental results are shown in Test Example 4.
(§3) The fluorescence intensity of each well was detected using the Alarm blue method, and IC50 was calculated.
(§4) IC50 was calculated according to the following formula:
(§5) Y=Max+(Min−Max)/[1+(X/IC50)×Slope]
(§6) wherein Min, Max and Slope represent the minimum, maximum and slope respectively.

MDA-MB-231 cells = experiment: Cell proliferation experiment, MDA-MB-231
Description: as §1, §2, §3, §4, §5, §6

MV4;11 cells = experiment: Cell proliferation experiment (Alamar blue, 72 h), MV4;11; conditions: Homo sapiens
Description: as §1, §2, §3, §4, §5, §6

NCIH82 cells = experiment: Cell proliferation experiment, NCI-H82; conditions: Homo sapiens, NCI-H82, NCI-H82 cells; read-out: Inhibitory activity IC50 on NCI-H82
Description: as §1, §2, §3, §4, §5, §6

PC-3 = experiment: Cell proliferation experiment, PC-3; conditions: read-out: Inhibitory activity IC50 on PC-3
Description: as §1, §2, §3, §4, §5, §6

[1] = Homo sapiens, MDA-MB-231, MDA-MB-231 cells, read-out: Inhibitory activity IC50 on MDA-MB-231
[2] = MV4-11, MV4;11 cells, read-out: Inhibitory activity IC50 on MV4;11

SMILES	IC50 (Daudi cells; Daudi cells)	IC50 (MDA-MB-231 cells; [1])	IC50 (MV4;11 cells; [2])	IC50 (NCIH82 cells)	further results
CC[C@@H]1C(=O)N(C)c2cnc(Nc3ccc(C(=O)N[C@H]4CC[C@@H](NC5CCN(CCC#Cc6cccc7c6CN(C6CCC(=O)NC6=O)C7=O)CC5)CC4)cc3OC)nc2N1C1CCCC1 (stereo partly shown) [UB-180934]	10 to 100 nM	100 to 1000 nM	10 to 100 nM		IC50 (MV4;11 cells; MV4-11, 72 h, MV4;11 cells, 72 h, read-out: Inhibitory activity IC50 of tested compounds on MV4;11 cells): ≤ 100 nM
CC[C@@H]1C(=O)N(C)c2cnc(Nc3ccc(C(=O)NCCCOCCCN(CCC#Cc4cccc5c4CN(C4CCC(=O)NC4=O)C5=O)C(=O)OC(C)C(C)SSC[C@@H](NC(=O)[C@@H](CC(=O)O)NC(=O)[C@@H](CC(=O)O)NC(=O)[C@@H](CCCNC(=N)N)NC(=O)[C@@H](CC(=O)O)NC(=O)CC[C@H](NC(=O)c4ccc(NCc5cnc6nc(N)[nH]c(=O)c6n5)cc4)C(=O)O)C(=O)O)cc3OC)nc2N1C1CCCC1 (stereo partly shown) [UB-180939]					IC50 (Daudi cells): 100 to 1000 nM; IC50 (MDA-MB-231 cells; Homo sapiens, MDA-MB-231, read-out: Inhibitory activity IC50 on MDA-MB-231): > 1000 nM; IC50 (MV4;11 cells; MV4-11, read-out: Inhibitory activity IC50 on MV4;11): 10 to 100 nM
CC[C@@H]1C(=O)N(C)c2cnc(Nc3ccc(-c4cn(CCCCCCNCCC#Cc5cccc6c5CN(C5CCC(=O)NC5=O)C6=O)nn4)cc3OC)nc2N1C1CCCC1 (stereo partly shown) [UB-180949]	10 to 100 nM	10 to 100 nM	< 10 nM		
O=C1CCC(N2Cc3cc(NC(=O)CCOCCOCCOCCn4cc(-c5ccc(Nc6ncc7c(n6)-c6ccc(Cl)cc6C(c6c(F)cccc6F)=NC7)cc5)nn4)ccc3C2=O)C(=O)N1 (stereo not shown) [UB-180950]	100 to 1000 nM	> 1000 nM	< 10 nM	100 to 1000 nM	
CC[C@@H]1C(=O)N(C)c2cnc(Nc3ccc(-c4cn([C@H]5CC[C@@H](NCCCCCC#Cc6cccc7c6CN(C6CCC(=O)NC6=O)C7=O)CC5)nn4)cc3OC)nc2N1C1CCCC1 (stereo partly shown) [UB-180977]	10 to 100 nM	< 10 nM	< 10 nM		
CC[C@@H]1C(=O)N(C)c2cnc(Nc3ccc(C(=O)N[C@H]4CC[C@@H](NCCCCCC#Cc5cccc6c5CN(C5CCC(=O)NC5=O)C6=O)CC4)cc3OC)nc2N1C1CCCC1 (stereo partly shown) [UB-180978]	10 to 100 nM	< 10 nM	< 10 nM		
CC[C@@H]1C(=O)N(C)c2cnc(Nc3ccc(-c4cn([C@H]5CC[C@@H](N(CCOCCC#Cc6cccc7c6CN(C6CCC(=O)NC6=O)C7=O)C(=O)OC(C)C(C)SSC[C@@H](NC(=O)[C@@H](CC(=O)O)NC(=O)[C@@H](CC(=O)O)NC(=O)[C@@H](CCCNC(=N)N)NC(=O)[C@@H](CC(=O)O)NC(=O)CC[C@H](NC(=O)c6ccc(NCc7cnc8nc(N)[nH]c(=O)c8n7)cc6)C(=O)O)C(=O)O)CC5)nn4)cc3OC)nc2N1C1CCCC1 (stereo partly shown) [UB-180979]	10 to 100 nM	100 to 1000 nM	10 to 100 nM		
O=C1CCC(N2Cc3cc(NC(=O)CCCCCCCCCNCCn4cc(-c5ccc(Nc6ncc7c(n6)-c6ccc(Cl)cc6C(c6c(F)cccc6F)=NC7)cc5)nn4)ccc3C2=O)C(=O)N1 (stereo not shown) [UB-180986]	100 to 1000 nM	> 1000 nM	10 to 100 nM	100 to 1000 nM	
CC[C@@H]1C(=O)N(C)c2cnc(Nc3ccc(-c4cn([C@H]5CC[C@@H](NCCOCCCC#Cc6cccc7c6CN(C6CCC(=O)NC6=O)C7=O)CC5)nn4)cc3OC)nc2N1C1CCCC1 (stereo partly shown) [UB-180992]	10 to 100 nM	10 to 100 nM	< 10 nM		
CC[C@@H]1C(=O)N(C)c2cnc(Nc3ccc(-c4cn([C@H]5CC[C@@H](NCCOCCCC#Cc6ccc7c(c6)CN(C6CCC(=O)NC6=O)C7=O)CC5)nn4)cc3OC)nc2N1C1CCCC1 (stereo partly shown) [UB-180993]	10 to 100 nM	10 to 100 nM	10 to 100 nM		
CC[C@@H]1C(=O)N(C)c2cnc(Nc3ccc(-c4cn([C@H]5CC[C@@H](NCCCOCCC#Cc6cccc7c6CN(C6CCC(=O)NC6=O)C7=O)CC5)nn4)cc3OC)nc2N1C1CCCC1 (stereo partly shown) [UB-180998]	10 to 100 nM	10 to 100 nM	< 10 nM		
CC[C@@H]1C(=O)N(C)c2cnc(Nc3ccc(-c4cn([C@H]5CC[C@@H](NCCCOCCC#Cc6ccc7c(c6)CN(C6CCC(=O)NC6=O)C7=O)CC5)nn4)cc3OC)nc2N1C1CCCC1 (stereo partly shown) [UB-180999]	10 to 100 nM	10 to 100 nM	< 10 nM		
CC[C@@H]1C(=O)N(C)c2cnc(Nc3ccc(-c4cn([C@H]5CC[C@@H](NCCOCCC#Cc6ccc7c(c6)CN(C6CCC(=O)NC6=O)C7=O)CC5)nn4)cc3OC)nc2N1C1CCCC1 (stereo partly shown) [UB-181004]	10 to 100 nM	10 to 100 nM	< 10 nM		
O=C1CCC(N2Cc3c(C#CCCNCCOCCOCCNC(=O)c4ccc(Nc5ncc6c(n5)-c5ccc(Cl)cc5C(c5c(F)cccc5F)=NC6)cc4)cccc3C2=O)C(=O)N1 (stereo not shown) [UB-181028]	> 1000 nM		100 to 1000 nM	> 1000 nM	
CC[C@@H]1C(=O)N(C)c2cnc(Nc3ccc(C(=O)N[C@H]4CC[C@@H](NCCOCCC#Cc5cccc6c5CN([C@H]5CCC(=O)NC5=O)C6=O)CC4)cc3)nc2N1C1CCCC1 [UB-181179]					IC50 (PC-3; PC-3 cells): 10 to 100 nM; IC50 (MDA-MB-231 cells; MDA-MB-231 cells, read-out: Inhibitory activity IC50 on MDA-MB-231): 10 to 100 nM

Continued, in another order:

IC50 (Daudi cells; Daudi cells)	IC50 (MDA-MB-231 cells; [1])	IC50 (MV4;11 cells; [2])	IC50 (NCIH82 cells)	SMILES	further results
> 1000 nM		> 1000 nM	> 1000 nM	O=C1CCC(N2Cc3cc(C#CCCNCCOCCOCCNC(=O)c4ccc(Nc5ncc6c(n5)-c5ccc(Cl)cc5C(c5c(F)cccc5F)=NC6)cc4)ccc3C2=O)C(=O)N1 (stereo not shown) [UB-181029]	
> 1000 nM		> 1000 nM	> 1000 nM	O=C1CCC(N2Cc3c(NC(=O)CCNCCCOCCCCNC(=O)[C@]4(Cc5cccc(Nc6nccs6)n5)CC[C@@H](Oc5cccc(Cl)c5F)CC4)cccc3C2=O)C(=O)N1 (stereo partly shown) [UB-181030]	
	< 10 nM	< 10 nM		CC[C@@H]1C(=O)N(C)c2cnc(Nc3ccc(-c4cn([C@H]5CC[C@@H](N(C)CCOCCC#Cc6cccc7c6CN(C6CCC(=O)NC6=O)C7=O)CC5)nn4)cc3OC)nc2N1C1CCCC1 (stereo partly shown) [UB-181045]	IC50 (PC-3; Homo sapiens, PC-3, PC-3 cells): 100 to 1000 nM
	100 to 1000 nM	10 to 100 nM		CC[C@@H]1C(=O)N(C)c2cnc(Nc3ccc(-c4cn([C@H]5CC[C@@H](N(CCO)CCOCCC#Cc6cccc7c6CN(C6CCC(=O)NC6=O)C7=O)CC5)nn4)cc3OC)nc2N1C1CCCC1 (stereo partly shown) [UB-181052]	IC50 (PC-3; Homo sapiens, PC-3, PC-3 cells): < 10 nM
	100 to 1000 nM	< 10 nM		CC[C@@H]1C(=O)N(C)c2cnc(Nc3ccc(-c4cn([C@H]5CC[C@@H](N(CCOCCC#Cc6cccc7c6CN(C6CCC(=O)NC6=O)C7=O)C(=O)CO)CC5)nn4)cc3OC)nc2N1C1CCCC1 (stereo partly shown) [UB-181063]	IC50 (PC-3; Homo sapiens, PC-3, PC-3 cells): 100 to 1000 nM
10 to 100 nM		< 10 nM	10 to 100 nM	NC(=O)c1ccccc1Nc1nc(Nc2ccc(C3CCN(C(=O)N[C@H]4CC[C@@H](NCCC#Cc5cccc6c5CN(C5CCC(=O)NC5=O)C6=O)CC4)CC3)cc2)ncc1Cl (stereo partly shown) [UB-181183]	IC50 (PC-3; Homo sapiens, PC-3, PC-3 cells): 10 to 100 nM
10 to 100 nM			< 10 nM	NC(=O)c1ccccc1Nc1nc(Nc2ccc(C3CCN(C(=O)NC4CCN(C5CN(CCC#Cc6ccc7c(c6)CN(C6CCC(=O)NC6=O)C7=O)C5)CC4)CC3)cc2)ncc1Cl (stereo not shown) [UB-181199]	IC50 (PC-3; Homo sapiens, PC-3, PC-3 cells): 10 to 100 nM
100 to 1000 nM			100 to 1000 nM	NC(=O)c1ccccc1Nc1nc(Nc2ccc(N3CCN(C(=O)N[C@H]4CC[C@@H](NCC(O)CC#Cc5ccc6c(c5)CN(C5CCC(=O)NC5=O)C6=O)CC4)CC3)cc2)ncc1Cl (stereo partly shown) [UB-181203]	IC50 (PC-3; Homo sapiens, PC-3, PC-3 cells): 100 to 1000 nM
100 to 1000 nM			100 to 1000 nM	NC(=O)c1ccccc1Nc1nc(Nc2ccc(C3CCN(C(=O)N[C@H]4CC[C@@H](NCCCCOCCC#Cc5ccc6c(c5)CN(C5CCC(=O)NC5=O)C6=O)CC4)CC3)cc2)ncc1Cl (stereo partly shown) [UB-181205]	IC50 (PC-3; Homo sapiens, PC-3, PC-3 cells): 100 to 1000 nM
100 to 1000 nM	> 1000 nM	< 10 nM	> 1000 nM	O=C1CCC(N2Cc3cc(NC(=O)CCOCCOCCOCCN[C@H]4CC[C@@H](n5cc(-c6ccc(Nc7ncc8c(n7)-c7ccc(Cl)cc7C(c7c(F)cccc7F)=NC8)cc6)nn5)CC4)ccc3C2=O)C(=O)N1 (stereo partly shown) [UB- 180980]	
